Laboratory results as given in patent US20090270394A1, “CYCLYLAMINE DERIVATIVES AS CALCIUM CHANNEL BLOCKERS” (priority 2008, published 2009).

Target: T1, Human Cav2.2 channels (Homo sapiens, UniProt Q00975)
T1 construct: expressed in transfected cells
Assay: Fluorescent assay for Cav2.2 channels using potassium depolarization to initiate channel opening
Assay type: cell-based
Settings: for inhibition at 10 µM: 10 μM compound, read-out: Cav 2.2 Activity % Inh at 10 μM; for inhibition at 30 µM: 30 μM compound, read-out: Cav 2.2 Activity % Inh at 30 μM; for IC50: 30 mM K (block of open and inactivated channels), read-out: Cav 2.2 Activity IC50 at 30 mM K
From the text: Human Cav2.2 channels were stably expressed in HEK293 cells along with alpha2-delta and beta subunits of voltage-gated calcium channels. An inwardly rectifying potassium channel (Kir2.3) was also expressed in these cells to allow more precise control of the cell membrane potential by extracellular potassium concentration. At low bath potassium concentration, the membrane potential is relatively negative, and is depolarized as the bath potassium concentration is raised. In this way, the bath potassium concentration can be used to regulate the voltage-dependent conformations of the channels. […] After the incubation period, Cav2.2 channel opening is triggered by addition of higher concentration of potassium (70 mM final concentration) to further depolarize the cell. The degree of state-dependent block can be estimated from the inhibitory potency of compounds after incubation in different potassium concentrations.
Calcium influx through Cav2.2 channels is determined using a calcium sensitive fluorescent dye in combination with a fluorescent plate reader. Fluorescent changes were measured with either a VIPR (Aurora Instruments) or FLIPR (Molecular Devices) plate reader.
• 1. Seed cells in Poly-D-Lysine Coated 96 or 384-well plate and keep in a 37° C.-10% CO2 incubator overnight • 2. […] Incubate in the dark at 25° C. for 60-70 min • 5. Remove dye, wash cells with 0.1 mL (96-well plate) or 0.06 mL (384-well plate) of 4, 12, 25, or 30 mM Potassium Pre-polarization Buffer (PPB) • 6. […] Incubate in the dark at 25° C. for 30 min • 8. Read cell plate on VIPR instrument, Excitation=480 nm, Emission=535 nm • 9. With VIPR continuously reading, add 0.1 mL (96-well plate) or 0.03 mL (384-well plate) of Depolarization Buffer (DB), which is 2× the final assay concentration, to the cell plate.

T1 sequence (Q00975 whole entry): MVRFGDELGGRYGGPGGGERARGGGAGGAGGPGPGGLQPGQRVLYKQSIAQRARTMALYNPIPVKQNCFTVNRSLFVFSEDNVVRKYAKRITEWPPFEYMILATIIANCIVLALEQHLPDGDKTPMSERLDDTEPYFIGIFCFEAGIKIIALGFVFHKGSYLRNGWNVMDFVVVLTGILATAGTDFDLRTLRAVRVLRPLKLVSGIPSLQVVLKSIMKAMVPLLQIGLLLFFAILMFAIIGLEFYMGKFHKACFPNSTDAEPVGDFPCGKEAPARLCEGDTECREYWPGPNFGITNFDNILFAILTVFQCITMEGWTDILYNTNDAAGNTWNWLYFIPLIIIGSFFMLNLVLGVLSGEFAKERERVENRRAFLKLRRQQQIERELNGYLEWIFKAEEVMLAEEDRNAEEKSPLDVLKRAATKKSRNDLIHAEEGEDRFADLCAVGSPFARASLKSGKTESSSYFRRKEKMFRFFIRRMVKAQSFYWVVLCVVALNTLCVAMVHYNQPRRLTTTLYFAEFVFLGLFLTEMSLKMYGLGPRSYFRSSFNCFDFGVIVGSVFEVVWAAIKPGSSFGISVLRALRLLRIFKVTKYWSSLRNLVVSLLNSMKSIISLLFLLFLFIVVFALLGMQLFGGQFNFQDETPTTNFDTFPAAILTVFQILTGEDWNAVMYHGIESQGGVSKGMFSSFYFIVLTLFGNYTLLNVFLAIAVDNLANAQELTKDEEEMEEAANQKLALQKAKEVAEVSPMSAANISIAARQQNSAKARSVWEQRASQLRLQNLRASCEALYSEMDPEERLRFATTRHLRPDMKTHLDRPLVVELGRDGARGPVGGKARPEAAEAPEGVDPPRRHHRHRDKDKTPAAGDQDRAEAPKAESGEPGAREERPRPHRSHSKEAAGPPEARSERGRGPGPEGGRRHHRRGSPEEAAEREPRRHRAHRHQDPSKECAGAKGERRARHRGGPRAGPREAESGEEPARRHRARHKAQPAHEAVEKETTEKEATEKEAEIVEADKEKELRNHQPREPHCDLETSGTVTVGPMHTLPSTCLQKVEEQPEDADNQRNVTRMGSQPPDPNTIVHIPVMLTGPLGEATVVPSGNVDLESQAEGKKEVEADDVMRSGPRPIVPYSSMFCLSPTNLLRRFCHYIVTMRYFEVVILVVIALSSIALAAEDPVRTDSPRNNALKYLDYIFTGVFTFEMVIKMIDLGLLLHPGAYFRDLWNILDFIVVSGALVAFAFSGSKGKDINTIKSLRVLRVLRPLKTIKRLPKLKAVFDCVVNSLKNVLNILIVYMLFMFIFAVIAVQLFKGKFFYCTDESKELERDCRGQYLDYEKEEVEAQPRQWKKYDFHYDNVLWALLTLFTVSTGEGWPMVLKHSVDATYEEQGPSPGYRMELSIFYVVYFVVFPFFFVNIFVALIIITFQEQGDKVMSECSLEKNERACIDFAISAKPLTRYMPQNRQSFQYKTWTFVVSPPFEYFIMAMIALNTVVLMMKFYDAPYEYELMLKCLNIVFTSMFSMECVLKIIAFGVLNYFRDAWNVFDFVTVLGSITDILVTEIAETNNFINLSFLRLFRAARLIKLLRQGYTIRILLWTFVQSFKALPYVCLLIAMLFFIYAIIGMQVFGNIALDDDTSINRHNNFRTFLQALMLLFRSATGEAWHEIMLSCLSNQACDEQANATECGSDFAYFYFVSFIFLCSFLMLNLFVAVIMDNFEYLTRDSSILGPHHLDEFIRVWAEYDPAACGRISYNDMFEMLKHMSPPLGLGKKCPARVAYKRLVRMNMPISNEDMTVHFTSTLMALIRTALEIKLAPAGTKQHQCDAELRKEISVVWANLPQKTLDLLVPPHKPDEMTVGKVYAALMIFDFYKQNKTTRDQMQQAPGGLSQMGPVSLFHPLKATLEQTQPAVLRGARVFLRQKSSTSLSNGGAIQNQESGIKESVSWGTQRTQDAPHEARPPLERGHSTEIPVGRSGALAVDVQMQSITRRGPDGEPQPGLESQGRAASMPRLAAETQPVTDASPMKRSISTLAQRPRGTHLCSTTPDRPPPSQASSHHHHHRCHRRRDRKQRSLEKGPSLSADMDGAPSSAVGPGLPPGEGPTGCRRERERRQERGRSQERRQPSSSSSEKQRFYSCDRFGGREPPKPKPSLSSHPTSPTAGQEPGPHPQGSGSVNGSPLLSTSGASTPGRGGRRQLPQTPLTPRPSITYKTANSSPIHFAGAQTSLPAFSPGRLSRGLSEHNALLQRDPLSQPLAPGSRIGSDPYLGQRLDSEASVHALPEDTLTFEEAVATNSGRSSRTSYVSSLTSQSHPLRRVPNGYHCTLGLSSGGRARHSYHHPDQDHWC
T1 sequence (P54289 25-1103 partner): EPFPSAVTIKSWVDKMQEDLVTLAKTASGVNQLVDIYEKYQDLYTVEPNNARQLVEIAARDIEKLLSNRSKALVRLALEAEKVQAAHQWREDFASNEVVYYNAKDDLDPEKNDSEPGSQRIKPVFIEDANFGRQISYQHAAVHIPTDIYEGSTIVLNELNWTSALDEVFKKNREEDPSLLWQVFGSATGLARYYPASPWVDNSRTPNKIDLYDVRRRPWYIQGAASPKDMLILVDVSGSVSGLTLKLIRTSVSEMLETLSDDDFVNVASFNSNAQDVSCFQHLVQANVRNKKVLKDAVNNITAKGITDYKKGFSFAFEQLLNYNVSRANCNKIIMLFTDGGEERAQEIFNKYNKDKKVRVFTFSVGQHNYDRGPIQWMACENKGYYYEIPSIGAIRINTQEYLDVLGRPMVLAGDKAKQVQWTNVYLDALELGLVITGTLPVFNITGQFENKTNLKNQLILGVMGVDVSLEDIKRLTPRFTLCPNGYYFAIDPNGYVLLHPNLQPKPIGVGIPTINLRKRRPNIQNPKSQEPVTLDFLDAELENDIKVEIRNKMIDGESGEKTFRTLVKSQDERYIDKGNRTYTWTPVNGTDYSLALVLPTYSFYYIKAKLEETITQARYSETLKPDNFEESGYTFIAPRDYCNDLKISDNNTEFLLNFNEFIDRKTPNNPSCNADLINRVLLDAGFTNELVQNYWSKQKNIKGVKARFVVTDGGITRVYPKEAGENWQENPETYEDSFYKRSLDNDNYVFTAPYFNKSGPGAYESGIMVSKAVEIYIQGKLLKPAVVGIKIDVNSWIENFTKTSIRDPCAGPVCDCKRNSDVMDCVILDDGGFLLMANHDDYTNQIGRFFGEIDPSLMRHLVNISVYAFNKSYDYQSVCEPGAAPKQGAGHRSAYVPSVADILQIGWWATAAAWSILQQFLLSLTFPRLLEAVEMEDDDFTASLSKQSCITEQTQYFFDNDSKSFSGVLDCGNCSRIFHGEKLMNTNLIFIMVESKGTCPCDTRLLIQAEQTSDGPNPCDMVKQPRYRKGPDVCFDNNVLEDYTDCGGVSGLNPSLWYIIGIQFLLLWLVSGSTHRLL
T1 sequence (P54284 whole entry partner): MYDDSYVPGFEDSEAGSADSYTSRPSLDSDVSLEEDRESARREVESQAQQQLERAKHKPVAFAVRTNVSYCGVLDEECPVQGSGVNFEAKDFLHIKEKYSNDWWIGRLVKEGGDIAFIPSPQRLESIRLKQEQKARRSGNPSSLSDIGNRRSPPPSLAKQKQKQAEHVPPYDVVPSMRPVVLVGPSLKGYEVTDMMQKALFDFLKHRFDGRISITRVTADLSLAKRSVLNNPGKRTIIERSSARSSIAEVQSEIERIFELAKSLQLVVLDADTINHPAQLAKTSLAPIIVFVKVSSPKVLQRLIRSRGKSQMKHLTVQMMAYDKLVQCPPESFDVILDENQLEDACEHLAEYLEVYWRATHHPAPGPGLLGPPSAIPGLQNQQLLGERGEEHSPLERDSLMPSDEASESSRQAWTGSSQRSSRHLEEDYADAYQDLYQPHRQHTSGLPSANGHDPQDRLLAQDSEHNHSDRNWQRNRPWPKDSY

| inhibition at 10 µM [%] | inhibition at 30 µM [%] | IC50 [nM] | Compound |
| --- | --- | --- | --- |
| 99.6 | 102 | 80.3 | CC(C)(C)c1cc(C(=O)NC2(C(=O)NCc3ccc(F)cc3F)CCCCC2)cc(C(C)(C)C)c1 [Compound 50, 3,5-di-tert-butyl-N-(1-(2,4-difluorobenzylcarbamoyl)cyclohexyl)benzamide] |
| 82.2 | 91.3 | 893 | CC(C)(C)c1cc(C(=O)NC2(C(=O)NCc3ccccc3)Cc3ccccc3C2)cc(C(C)(C)C)n1 [Compound 52, N-(2-(benzylcarbamoyl)-2,3-dihydro-1H-inden-2-yl)-2,6-di-tert-butylisonicotinamide] |
| 56.3 | 74.3 |  | CC(C)(C)c1cc(C(=O)NC2(C(=O)NCc3cccc(C(F)(F)F)c3)Cc3ccccc3C2)cc(C(C)(C)C)c1 [Compound 53, 2-(3,5-di-tert-butylbenzamido)-N-(3-(trifluoromethyl)benzyl)-2,3-dihydro-1H-indene-2-carboxamide] |
| 84.4 | 92.6 | 321 | CC(C)(C)c1cc(C(=O)NC2(C(=O)NCc3ccccc3)CCCCC2)cc(C(C)(C)C)n1 [Compound 56, N-(1-(benzylcarbamoyl)cyclohexyl)-2,6-di-tert-butylisonicotinamide] |
| 99.8 | 101 | 868 | CC(C)(C)c1cc(CNC2(C(=O)NCc3ccccc3)CCCCC2)cc(C(C)(C)C)c1 [Compound 57, N-benzyl-1-(3,5-di-tert-butylbenzylamino)cyclohexanecarboxamide] |
| 50.2 | 62.5 |  | CC(C)(C)OC(=O)N1CCC(NC(=O)c2cc(C(C)(C)C)nc(C(C)(C)C)c2)(C(=O)NCc2ccccc2)CC1 [Compound 59, tert-butyl 4-(benzylcarbamoyl)-4-(2,6-di-tert-butylisonicotinamido)piperidine-1-carboxylate] |
| 94.3 | 88.1 | 99.1 | CC(C)(C)c1cc(C(=O)NC2(C(=O)NCc3cccc(C(F)(F)F)c3)CCCCC2)cc(C(C)(C)C)c1 [Compound 62, 3,5-di-tert-butyl-N-(1-(3-(trifluoromethyl)benzylcarbamoyl)cyclohexyl)benzamide] |
| 104 | 107 | 123 | CC(C)(C)c1cc(C(=O)NC2(C(=O)NCc3ccccc3)CCCCC2)cc(C(C)(C)C)c1O [Compound 65, N-(1-(benzylcarbamoyl)cyclohexyl)-3,5-di-tert-butyl-4-hydroxybenzamide] |
|  |  | 960 | CC(C)(C)c1cc(C(=O)NC2(C(=O)N3CCCC3)CCCCC2)cc(C(C)(C)C)n1 [Compound 66, 2,6-di-tert-butyl-N-(1-(pyrrolidine-1-carbonyl)cyclohexyl)isonicotinamide] |
| 88.3 | 95.3 | 538 | CC(C)(C)c1cc(C(=O)NC2(C(=O)N3CCN(Cc4ccccc4)CC3)CCCCC2)cc(C(C)(C)C)n1 [Compound 69, N-(1-(4-benzylpiperazine-1-carbonyl)cyclohexyl)-2,6-di-tert-butylisonicotinamide] |
| 89.8 | 96.3 | 27.4 | CC(C)(C)c1cc(C(=O)NC2(C(=O)NCc3ccccc3)CCCCC2)cc(C(C)(C)C#N)c1 [Compound 70, N-(1-(benzylcarbamoyl)cyclohexyl)-3-tert-butyl-5-(2-cyanopropan-2-yl)benzamide] |
| 77.3 | 81.1 | 477 | COc1c(C(C)(C)C)cc(CNC2(C(=O)NCc3cccc(C(F)(F)F)c3)CCCCC2)cc1C(C)(C)C [Compound 71, 1-(3,5-di-tert-butyl-4-methoxybenzylamino)-N-(3-(trifluoromethyl)benzyl)cyclohexanecarboxamide] |

Second part, the compound before the results:

| Compound | inhibition at 10 µM [%] | inhibition at 30 µM [%] | IC50 [nM] |
| --- | --- | --- | --- |
| Cc1cc(CNC(=O)C2(NC(=O)c3cc(C(C)(C)C)cc(C(C)(C)C)c3)CCCCC2)no1 [Compound 51, 3,5-di-tert-butyl-N-(1-((5-methylisoxazol-3-yl)methylcarbamoyl)cyclohexyl)benzamide] | 106 | 106 | 63.5 |
| CC(C)(C)c1cc(C(=O)NC2(C(=O)NCc3cccc(C(F)(F)F)c3)Cc3ccccc3C2)cc(C(C)(C)C)n1 [Compound 54, 2,6-di-tert-butyl-N-(2-(3-(trifluoromethyl)benzylcarbamoyl)-2,3-dihydro-1H-inden-2-yl)isonicotinamide] | 46.2 | 68.4 |  |
| CC(C)(C#N)c1ccc(C(=O)NC2(C(=O)NCc3cccc(C(F)(F)F)c3)Cc3ccccc3C2)cc1 [Compound 55, 2-(4-(2-cyanopropan-2-yl)benzamido)-N-(3-(trifluoromethyl)benzyl)-2,3-dihydro-1H-indene-2-carboxamide] | 89 | 100 |  |
| CC(C)(C)OC(=O)N1CCC(NC(=O)c2cc(C(C)(C)C)nc(C(C)(C)C)c2)(C(=O)O)CC1 [Compound 58, 1-(tert-butoxycarbonyl)-4-(2,6-di-tert-butylisonicotinamido)piperidine-4-carboxylic acid] | 37.6 | 77.9 |  |
| CC(C)(C)c1cc(CNC2(C(=O)NCc3cccc(C(F)(F)F)c3)CCCCC2)cc(C(C)(C)C)c1 [Compound 60, 1-(3,5-di-tert-butylbenzylamino)-N-(3-(trifluoromethyl)benzyl)cyclohexanecarboxamide] | 74.8 | 85.8 |  |
| N#CCc1cc(CC#N)cc(C(=O)NC2(C(=O)NCc3cccc(C(F)(F)F)c3)CCCCC2)c1 [Compound 61, 3,5-bis(cyanomethyl)-N-(1-(3-(trifluoromethyl)benzylcarbamoyl)cyclohexyl)benzamide] | 18.7 | 56.4 |  |
| CC(C)(C)NC(=O)C(C)(C)c1cc(C(=O)NC2(C(=O)NCc3ccccc3)CCCCC2)cc(C(C)(C)C(=O)NC(C)(C)C)c1 [Compound 63, 2,2′-(5-(1-(benzylcarbamoyl)cyclohexylcarbamoyl)-1,3-phenylene)bis(N-tert-butyl-2-methylpropanamide)] | 66.4 | 82 |  |
| CC(C)(C)c1cc(C(=O)NC2(C(=O)NCc3ccccc3)CCNCC2)cc(C(C)(C)C)n1 [Compound 64, N-(4-(benzylcarbamoyl)piperidin-4-yl)-2,6-di-tert-butylisonicotinamide] | 69.5 | 104 |  |
| COc1ccc(CNC(=O)C2(NC(=O)c3cc(C(C)(C)C)c(O)c(C(C)(C)C)c3)CCCCC2)cc1 [Compound 67, 3,5-di-tert-butyl-4-hydroxy-N-(1-(4-methoxybenzylcarbamoyl)cyclohexyl)benzamide] | 94.4 | 98.6 | 20.6 |
| Cc1cc(CNC(=O)C2(NC(=O)c3cc(C(C)(C)C)cc(C(C)(C)C)c3)CCCCC2)nn1C [Compound 68, 3,5-di-tert-butyl-N-(1-((1,5-dimethyl-1H-pyrazol-3-yl)methylcarbamoyl)cyclohexyl)benzamide] | 98.4 | 94 | 64.9 |
| COc1c(C(C)(C)C)cc(CNC2(C(=O)NCc3ccccc3)CCCCC2)cc1C(C)(C)C [Compound 72, N-benzyl-1-(3,5-di-tert-butyl-4-methoxybenzylamino)cyclohexanecarboxamide] | 97.8 | 97.4 | 145 |
